Results as given in ChEMBL document CHEMBL1201862, “PubChem BioAssay data set” (2004).
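1) Cells in 96-well plates. 2) Compound, 48 h, 5 concentrations. 3) Linear interpolation between surrounding doses. 4) Unreached endpoint = highest concentration. Here, GI50 denotes the concentration required for 50% inhibition of growth.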 The source made the active and inactive calls. No stated cut-off is given here; in the data, active = GI50 up to about 1.1 µM and inactive = higher. Where a SMILES comes first, the peptide text is derived from it. [ ]: non-standard residue; d: D form. The star is where a group is joined. ξ: configuration not given here. ξPhe(4-NO2) = NC(Cc1ccc([N+](=O)[O-])cc1)C(=O)O; Boc = CC(C)(C)OC(=O)*

Legend:
Experiment in all cases: NCI anticancer screen, dose series, 48 h
PC-3 = system: PC-3
CCRF-CEM = system: CCRF-CEM
NCI-H460 = system: NCI-H460
UO-31 = system: UO-31
KM12 = system: KM12
CAKI-1 = system: CAKI-1
OVCAR-3 = system: OVCAR-3
COLO 205 = system: COLO 205
SK-MEL-2 = system: SK-MEL-2
MCF7 = system: MCF7
ACHN = system: ACHN
MDA-N = system: MDA-N
RPMI-8226 = system: RPMI-8226
HOP-62 = system: HOP-62
SW-620 = system: SW-620
HL-60 = system: HL-60
SF-268 = system: SF-268
Malme-3M = system: Malme-3M
SK-OV-3 = system: SK-OV-3
K562 = system: K562

Row | Compound | GI50 (PC-3) | GI50 (CCRF-CEM) | GI50 (NCI-H460) | GI50 (UO-31) | GI50 (KM12) | GI50 (CAKI-1) | GI50 (OVCAR-3) | GI50 (COLO 205) | GI50 (SK-MEL-2) | GI50 (MCF7) | GI50 (ACHN) | GI50 (MDA-N) | GI50 (RPMI-8226) | GI50 (HOP-62) | GI50 (SW-620) | GI50 (HL-60) | GI50 (SF-268) | GI50 (Malme-3M) | GI50 (SK-OV-3) | GI50 (K562)
1 | O=C(/C=C/c1ccc(Cl)c(Cl)c1)Oc1ccc(/C=C2\CCCCC2=O)cc1 | > 100 µM (inactive) | > 100 µM (inactive) | > 100 µM (inactive) | > 100 µM (inactive) | > 100 µM (inactive) | > 100 µM (inactive) | > 100 µM (inactive) | > 100 µM (inactive) | > 100 µM (inactive) | > 100 µM (inactive) | > 100 µM (inactive) | > 100 µM (inactive) | 67.6 µM (inactive) | > 100 µM (inactive) | > 100 µM (inactive) | 25.4 µM (inactive) | 39 µM (inactive) | – | – | –
2 | CC1=[N+]([O-])C(C)(C)N(O)C1(C)C | > 100 µM (inactive) | > 100 µM (inactive) | > 100 µM (inactive) | > 100 µM (inactive) | > 100 µM (inactive) | – | > 100 µM (inactive) | > 100 µM (inactive) | > 100 µM (inactive) | > 100 µM (inactive) | > 100 µM (inactive) | > 100 µM (inactive) | > 100 µM (inactive) | > 100 µM (inactive) | > 100 µM (inactive) | > 100 µM (inactive) | > 100 µM (inactive) | > 100 µM (inactive) | > 100 µM (inactive) | > 100 µM (inactive)
3 | CCOC(=O)N[C@H]1CCc2cc(OC)c(OC)c(OC)c2-c2ccc(SC)c(=O)cc21 | < 0.01 µM (active) | < 0.01 µM (active) | < 0.01 µM (active) | < 0.0117 µM (active) | < 0.01 µM (active) | < 0.01 µM (active) | < 0.01 µM (active) | < 0.01 µM (active) | < 0.01 µM (active) | < 0.01 µM (active) | < 0.01 µM (active) | < 0.01 µM (active) | < 0.01 µM (active) | < 0.01 µM (active) | < 0.01 µM (active) | < 0.01 µM (active) | < 0.01 µM (active) | < 0.01 µM (active) | – | < 0.01 µM (active)
4 | COc1ccc2nc3ccccc3c(NCCCN(C)CCCl)c2c1 | 0.202 µM (active) | 0.064 µM (active) | 0.0791 µM (active) | 0.592 µM (active) | 0.426 µM (active) | 0.231 µM (active) | 0.682 µM (active) | 0.147 µM (active) | 0.557 µM (active) | 0.213 µM (active) | 0.105 µM (active) | 0.311 µM (active) | 0.0817 µM (active) | 0.959 µM (active) | 0.0497 µM (active) | 0.0614 µM (active) | 0.155 µM (active) | 0.449 µM (active) | 0.406 µM (active) | 0.136 µM (active)
5 | COC(=O)/C=C1/OC(c2ccc(C)cc2C)=CC1=O | 17.8 µM (inactive) | 3.42 µM (inactive) | 19 µM (inactive) | 16.8 µM (inactive) | 17.6 µM (inactive) | 19.5 µM (inactive) | 26.9 µM (inactive) | 16.6 µM (inactive) | – | 8.26 µM (inactive) | 15.8 µM (inactive) | 15.2 µM (inactive) | 3.63 µM (inactive) | 25.2 µM (inactive) | 2.82 µM (inactive) | 2.74 µM (inactive) | 17.8 µM (inactive) | 16.4 µM (inactive) | 18.7 µM (inactive) | 2.81 µM (inactive)
6 | Cn1c(-c2ccc(C=O)o2)ccc1-c1ccc(C=O)o1 | 39.4 µM (inactive) | > 100 µM (inactive) | > 100 µM (inactive) | 35.3 µM (inactive) | 36.2 µM (inactive) | 12.5 µM (inactive) | 26.2 µM (inactive) | 87.7 µM (inactive) | > 100 µM (inactive) | 28.8 µM (inactive) | 31.7 µM (inactive) | 33.4 µM (inactive) | 57.1 µM (inactive) | 45.3 µM (inactive) | 35.4 µM (inactive) | 19.8 µM (inactive) | – | 31.7 µM (inactive) | > 100 µM (inactive) | 35.5 µM (inactive)
7 | O=C(NO)c1ccc(C(=O)NO)cc1 | > 100 µM (inactive) | 31.3 µM (inactive) | > 100 µM (inactive) | 39.3 µM (inactive) | 79.8 µM (inactive) | > 100 µM (inactive) | 32.4 µM (inactive) | 49.7 µM (inactive) | – | > 100 µM (inactive) | > 100 µM (inactive) | > 100 µM (inactive) | 30.1 µM (inactive) | 62.2 µM (inactive) | 80.9 µM (inactive) | 42.7 µM (inactive) | 58.3 µM (inactive) | 9.27 µM (inactive) | 12 µM (inactive) | 38.4 µM (inactive)
8 | COC1(OC)N=C(N)C2(C#N)C(C)=C3NCN(C)N=C3C12C#N (configuration not stated) | > 100 µM (inactive) | > 10 µM (inactive) | – | > 100 µM (inactive) | > 100 µM (inactive) | > 100 µM (inactive) | > 100 µM (inactive) | > 100 µM (inactive) | > 100 µM (inactive) | > 100 µM (inactive) | > 100 µM (inactive) | > 100 µM (inactive) | > 100 µM (inactive) | > 100 µM (inactive) | > 100 µM (inactive) | > 10 µM (inactive) | > 100 µM (inactive) | > 100 µM (inactive) | > 100 µM (inactive) | > 100 µM (inactive)
9 | O=C(Nc1ccccc1)Oc1ccc(C(=S)Nc2ccc(Br)cc2)cc1 | 22.6 µM (inactive) | 8.57 µM (inactive) | 16.9 µM (inactive) | – | 12.8 µM (inactive) | 15.3 µM (inactive) | 18.9 µM (inactive) | 17.2 µM (inactive) | 18.3 µM (inactive) | 19.1 µM (inactive) | 23.3 µM (inactive) | 18.9 µM (inactive) | 36.6 µM (inactive) | 28.6 µM (inactive) | 24.5 µM (inactive) | 8.13 µM (inactive) | 16.4 µM (inactive) | 19.2 µM (inactive) | 34.5 µM (inactive) | 21.5 µM (inactive)
10 | COC(=O)/C=C1/SC(/C(=C(/[O-])OC)[n+]2ccc3ccccc3c2)=NC1=O | > 100 µM (inactive) | > 100 µM (inactive) | – | > 100 µM (inactive) | > 100 µM (inactive) | > 100 µM (inactive) | – | > 100 µM (inactive) | > 100 µM (inactive) | > 100 µM (inactive) | > 100 µM (inactive) | > 100 µM (inactive) | > 100 µM (inactive) | > 100 µM (inactive) | > 100 µM (inactive) | > 100 µM (inactive) | > 100 µM (inactive) | > 100 µM (inactive) | > 100 µM (inactive) | > 100 µM (inactive)
11 | CN1CCCCC1CCN1CCCCC1 (configuration not stated) | > 100 µM (inactive) | – | > 100 µM (inactive) | > 100 µM (inactive) | > 100 µM (inactive) | > 100 µM (inactive) | > 100 µM (inactive) | 56.4 µM (inactive) | > 100 µM (inactive) | > 100 µM (inactive) | > 100 µM (inactive) | > 100 µM (inactive) | > 100 µM (inactive) | > 100 µM (inactive) | > 100 µM (inactive) | 83 µM (inactive) | > 100 µM (inactive) | > 100 µM (inactive) | > 100 µM (inactive) | > 100 µM (inactive)
12 | CSC(CC(=O)O)C(=O)O (configuration not stated) | > 100 µM (inactive) | > 100 µM (inactive) | > 100 µM (inactive) | > 100 µM (inactive) | > 100 µM (inactive) | > 100 µM (inactive) | > 100 µM (inactive) | > 100 µM (inactive) | > 100 µM (inactive) | > 100 µM (inactive) | > 100 µM (inactive) | > 100 µM (inactive) | > 100 µM (inactive) | > 100 µM (inactive) | > 100 µM (inactive) | > 100 µM (inactive) | > 100 µM (inactive) | > 100 µM (inactive) | > 100 µM (inactive) | –
13 | CC(C)(C)OC(=O)NC(CCCCNC(=O)OCc1ccccc1)C(=O)NCCNc1ccc(NCCNC(=O)C(CCCCNC(=O)OCc2ccccc2)NC(=O)OC(C)(C)C)c2c1C(=O)c1ccccc1C2=O (configuration not stated) | > 100 µM (inactive) | – | > 100 µM (inactive) | > 89.7 µM (inactive) | 25.6 µM (inactive) | > 100 µM (inactive) | > 79.4 µM (inactive) | 27.2 µM (inactive) | 6.44 µM (inactive) | 6.97 µM (inactive) | > 100 µM (inactive) | 26.4 µM (inactive) | 1.02 µM (active) | 23.9 µM (inactive) | 70.6 µM (inactive) | 1.02 µM (active) | > 31.8 µM (inactive) | > 86.3 µM (inactive) | 25.4 µM (inactive) | –
14 | COc1cc2c(cc1OC)C(=O)/C(=C/c1cc(Cl)cc(Cl)c1)C2 | 4.03 µM (inactive) | 2.07 µM (inactive) | 4.73 µM (inactive) | > 100 µM (inactive) | 1.38 µM (inactive) | 4.33 µM (inactive) | 3.33 µM (inactive) | 6.21 µM (inactive) | 23.5 µM (inactive) | 2.99 µM (inactive) | 7.91 µM (inactive) | 1.57 µM (inactive) | 4.94 µM (inactive) | 9.35 µM (inactive) | 3.79 µM (inactive) | 1.35 µM (inactive) | 21.4 µM (inactive) | 8.51 µM (inactive) | – | 0.859 µM (active)
15 | CCNC(=O)CNC(=O)C(Cc1ccc([N+](=O)[O-])cc1)NC(=O)OC(C)(C)C (configuration not stated) (Boc-[ξPhe(4-NO2)]-Gly-NHEt) | > 100 µM (inactive) | > 100 µM (inactive) | > 100 µM (inactive) | > 100 µM (inactive) | > 100 µM (inactive) | > 100 µM (inactive) | > 100 µM (inactive) | > 100 µM (inactive) | – | > 100 µM (inactive) | > 100 µM (inactive) | > 100 µM (inactive) | > 100 µM (inactive) | > 100 µM (inactive) | > 100 µM (inactive) | > 100 µM (inactive) | > 100 µM (inactive) | > 100 µM (inactive) | > 100 µM (inactive) | > 100 µM (inactive)
